Measurements from patent publication US20210163443A1, “Febrifugine Derivatives” (BRISTOL-MYERS SQUIBB COMPANY, priority 2019, published 2021).
Structures can show the parent of a compound that is named as a salt.

Target: T1, human ProRS (prolyl tRNA synthetase moiety of glutamyl prolyl tRNA synthetase, EPRS) (Homo sapiens, UniProt P07814)
T1 construct: The prolyl tRNA synthetase moiety (ProRS) in the cDNA of glutamyl prolyl tRNA synthetase was subcloned; 6xHis (N, cleaved yes); made in house; host or cells: E. coli BL21 (DE3)
T1 sequence (P07814 1007-1512 limits assumed): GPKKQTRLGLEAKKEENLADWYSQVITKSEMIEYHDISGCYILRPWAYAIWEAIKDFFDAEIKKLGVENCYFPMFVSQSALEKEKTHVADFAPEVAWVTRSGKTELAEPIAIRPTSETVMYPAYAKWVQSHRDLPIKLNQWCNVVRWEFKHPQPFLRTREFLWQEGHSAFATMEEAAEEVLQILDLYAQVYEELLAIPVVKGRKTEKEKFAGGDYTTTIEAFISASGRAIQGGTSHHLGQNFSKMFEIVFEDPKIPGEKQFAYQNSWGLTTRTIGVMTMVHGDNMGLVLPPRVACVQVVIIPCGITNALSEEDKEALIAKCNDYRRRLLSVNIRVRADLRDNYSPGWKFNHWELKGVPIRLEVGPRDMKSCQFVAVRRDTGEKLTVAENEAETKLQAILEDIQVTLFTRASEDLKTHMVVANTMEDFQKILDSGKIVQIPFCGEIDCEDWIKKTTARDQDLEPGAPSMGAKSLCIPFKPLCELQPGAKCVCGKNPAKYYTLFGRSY
Assay: Assay for inhibitors of prolyl tRNA synthetase activity (ProRS assay, labeled proline incorporation)
Assay type: biochemical
Details: human ProRS 20 nM, 10 min at 37° C.; read-out: EPRS IC50
Description: In order to establish the activities of the compounds highlighted above, we determined extent of inhibition of prolyl tRNA synthetase activity in dose response curves to obtain IC50 values.
The prolyl tRNA synthetase moiety (ProRS) in the cDNA of glutamyl prolyl tRNA synthetase was subcloned, tagged with a single biotin, purified and used in the assay.
Briefly, human ProRS with a 6×N-terminal His tag in pET28N with TVMV BioP was transformed in E. coli BL21 (DE3) cells, selected, overexpressed and purified using a Ni Seph 6 FF XK 16/20 column in the first stage. Ni-NTA eluates were pooled and treated with TVMV protease, and biotinylated using d-Biotin, MgCl2, ATP and the BirA enzyme. This was rerun through a Ni column as before. The eluates were further enriched and purified using membrane ultrafiltration and a SuperDex 200 XK 16/60 column, and peak fractions were confirmed by SDS-PAGE prior to protein amount determination, aliquoting and storage at −80° C. • ProRS assay was performed in 96 well plates in a final reaction volume of 20 μl, using staggered additions of Tris-Cl (pH 7.5, 60 mM), dithiothreitol (2 mM), ATP (5 mM, pH 7.0), MgCl2 6 mM), ProRS (20 nM, with pre-determined active fraction range) and bovine tRNA (20 μg). Controls and compounds, at various concentrations (10 μM to 0.5 nM), were incubated on ice with enzyme mix for 15 min followed by addition of proline (non-labeled and labeled, 3.96 and 1.04 μM (1 μCi) respectively) to initiate the reaction. Reaction was carried out for 10 min at 37° C. and terminated by addition of TCA (10%, 100 μl). Reaction mix was collected on a Whatman GF/B filter using a vacuum filtration manifold. This filter was washed 3 times with 5% TCA followed by 2 washes with ethanol, air dried, and read using a liquid scintillation counter (TopCount NXT) using MicroScint O. IC50 values were calculated and analyzed using ToolSet (4-parameter plot) and depicted herein.

| Compound | IC50 [nM] |
| --- | --- |
| 3-{(S)-2-hydroxy-3-[(2R,3S)-3-hydroxypiperidin-2-yl]propyl}-8-methyl-6-(1-methyl-1H-pyrazol-3-yl)quinazolin-4(3H)-one hydrochloride [Example 71] | 4200 |
| Cc1cc(Cl)cc2c(=O)n(CC(=O)C[C@H]3NCCC[C@@H]3O)cnc12 [Example 1, 6-Chloro-3-{3-[(2R,3S)-3-hydroxypiperidin-2-yl]-2-oxopropyl}-8-methylquinazolin-4(3H)-one hydrochloride] | 73 |
| Cc1c(Cl)ccc2c(=O)n(CC(=O)C[C@H]3NCCC[C@@H]3O)cnc12 [Example 2, 7-Chloro-3-{3-[(2R,3S)-3-hydroxypiperidin-2-yl]-2-oxopropyl}-8-methylquinazolin-4(3H)-one hydrochloride] | 15 |
| COc1ccc2c(=O)n(CC(=O)C[C@H]3NCCC[C@@H]3O)cnc2c1C [Example 4, 3-{3-[(2R,3S)-3-Hydroxypiperidin-2-yl]-2-oxopropyl}-7-methoxy-8-methylquinazolin-4(3H)-one hydrochloride] | 49 |
| O=C(C[C@H]1NCCC[C@@H]1O)Cn1cnc2cccc(F)c2c1=O [Example 5, 5-Fluoro-3-{3-[(2R,3S)-3-hydroxypiperidin-2-yl]-2-oxopropyl}quinazolin-4(3H)-one hydrochloride] | 8 |
| CCc1cc(C)c2ncn(CC(=O)C[C@H]3NCCC[C@@H]3O)c(=O)c2c1 [Example 6, 6-Ethyl-3-(3-((2R,3S)-3-hydroxypiperidin-2-yl)-2-oxopropyl)-8-methylquinazolin-4(3H)-one hydrochloride] | 3 |
| Cc1cc(OC(F)(F)F)cc2c(=O)n(CC(=O)C[C@H]3NCCC[C@@H]3O)cnc12 [Example 7, 3-{3-[(2R,3S)-3-Hydroxypiperidin-2-yl]-2-oxopropyl}-8-methyl-6-(trifluoromethoxy)quinazolin-4(3H)-one hydrochloride] | 9 |
| Cc1cc(S(C)(=O)=O)cc2c(=O)n(CC(=O)C[C@H]3NCCC[C@@H]3O)cnc12 [Example 8, 3-{3-[(2R,3S)-3-Hydroxypiperidin-2-yl]-2-oxopropyl}-8-methyl-6-methylsulfonyl)quinazolin-4(3H)-one hydrochloride] | 9 |
| Cc1cc(C(F)(F)F)cc2c(=O)n(CC(=O)C[C@H]3NCCC[C@@H]3O)cnc12 [Example 9, 3-{3-[(2R,3S)-3-Hydroxypiperidin-2-yl]-2-oxopropyl}-8-methyl-6-(trifluoromethyl)quinazolin-4(3H)-one hydrochloride] | 7 |
| Cc1cc(C(C)C)cc2c(=O)n(CC(=O)C[C@H]3NCCC[C@@H]3O)cnc12 [Example 10, 3-{3-[(2R,3S)-3-Hydroxypiperidin-2-yl]-2-oxopropyl}-6-isopropyl-8-methylquinazolin-4(3H)-one hydrochloride] | 6 |
| Cc1cc(C2CC2)cc2c(=O)n(CC(=O)C[C@H]3NCCC[C@@H]3O)cnc12 [Example 11, 6-Cyclopropyl-3-{3-[(2R,3S)-3-hydroxypiperidin-2-yl]-2-oxopropyl}-8-methylquinazolin-4(3H)-one hydrochloride] | 6 |
| Cc1cc(C#N)cc2c(=O)n(CC(=O)C[C@H]3NCCC[C@@H]3O)cnc12 [Example 12, 3-{3-[(2R,3S)-3-Hydroxypiperidin-2-yl]-2-oxopropyl}-8-methyl-4-oxo-3,4-dihydroquinazoline-6-carbonitrile hydrochloride] | 17 |
| CCc1cc(Br)cc2c(=O)n(CC(=O)C[C@H]3NCCC[C@@H]3O)cnc12 [Example 13, 6-Bromo-8-ethyl-3-{3-[(2R,3S)-3-hydroxypiperidin-2-yl]-2-oxopropyl}quinazolin-4(3H)-one hydrochloride] | 6 |
| CCc1cc(F)cc2c(=O)n(CC(=O)C[C@H]3NCCC[C@@H]3O)cnc12 [Example 14, 8-Ethyl-6-fluoro-3-(3-((2R,3S)-3-hydroxypiperidin-2-yl)-2-oxopropyl)quinazolin-4(3H)-one hydrochloride] | 38 |
| O=C(C[C@H]1NCCC[C@@H]1O)Cn1cnc2cccc(-c3cccc(F)c3)c2c1=O [Example 15, 5-(3-Fluorophenyl)-3-{3-[(2R,3S)-3-hydroxypiperidin-2-yl]-2-oxopropyl}quinazolin-4(3H)-one hydrochloride] | 6 |
| O=C(C[C@H]1NCCC[C@@H]1O)Cn1cnc2ccc(-c3cccc(F)c3)cc2c1=O [Example 16, 6-(3-Fluorophenyl)-3-{3-[(2R,3S)-3-hydroxypiperidin-2-yl]-2-oxopropyl}quinazolin-4(3H)-one hydrochloride] | 10 |
| O=C(C[C@H]1NCCC[C@@H]1O)Cn1cnc2ccc(-c3cccc(Cl)c3)cc2c1=O [Example 17, 6-(3-Chlorophenyl)-3-{3-[(2R,3S)-3-hydroxypiperidin-2-yl]-2-oxopropyl}quinazolin-4(3H)-one hydrochloride] | 28 |
| O=C(C[C@H]1NCCC[C@@H]1O)Cn1cnc2ccc(-c3cccc(C(F)(F)F)c3)cc2c1=O [Example 18, 3-{3-[(2R,3S)-3-Hydroxypiperidin-2-yl]-2-oxopropyl}-6-[3-(trifluoromethyl)phenyl]quinazolin-4(3H)-one hydrochloride] | 40 |
| Cc1cc(-c2cccc(F)c2)cc2c(=O)n(CC(=O)C[C@H]3NCCC[C@@H]3O)cnc12 [Example 19, 6-(3-Fluorophenyl)-3-{3-[(2R,3S)-3-hydroxypiperidin-2-yl]-2-oxopropyl}-8-methylquinazolin-4(3H)-one hydrochloride] | 9 |
| Cc1cc(-c2cccc(C(F)(F)F)c2)cc2c(=O)n(CC(=O)C[C@H]3NCCC[C@@H]3O)cnc12 [Example 20, 3-{3-[(2R,3S)-3-Hydroxypiperidin-2-yl]-2-oxopropyl}-8-methyl-6-[3-(trifluoromethyl)phenyl]quinazolin-4(3H)-one hydrochloride] | 28 |
| Cc1cc(-c2cccnc2)cc2c(=O)n(CC(=O)C[C@H]3NCCC[C@@H]3O)cnc12 [Example 21, 3-{3-[(2R,3S)-3-Hydroxypiperidin-2-yl]-2-oxopropyl}-8-methyl-6-(pyridin-3-yl)quinazolin-4(3H)-one dihydrochloride] | 8 |
| Cc1cc(-c2ccc(F)c(F)c2)cc2c(=O)n(CC(=O)C[C@H]3NCCC[C@@H]3O)cnc12 [Example 22, 6-(3,4-Difluorophenyl)-3-{3-[(2R,3S)-3-hydroxypiperidin-2-yl]-2-oxopropyl}-8-methylquinazolin-4(3H)-one hydrochloride] | 15 |
| Cc1cc(C2CCOCC2)cc2c(=O)n(CC(=O)C[C@H]3NCCC[C@@H]3O)cnc12 [Example 23, 3-{3-[(2R,3S)-3-Hydroxypiperidin-2-yl]-2-oxopropyl}-8-methyl-6-(tetrahydro-2H-pyran-4-yl)quinazolin-4(3H)-one hydrochloride] | 12 |
| Cc1cc(N2CCCC2)cc2c(=O)n(CC(=O)C[C@H]3NCCC[C@@H]3O)cnc12 [Example 24, 3-{3-[(2R,3S)-3-Hydroxypiperidin-2-yl]-2-oxopropyl}-8-methyl-6-(pyrrolidin-1-yl)quinazolin-4(3H)-one dihydrochloride] | 14 |
| O=C(C[C@H]1NCCC[C@@H]1O)Cn1cnc2cccc(C(F)(F)F)c2c1=O [Example 25, 3-{3-[(2R,3S)-3-Hydroxypiperidin-2-yl]-2-oxopropyl}-5-(trifluoromethyl)quinazolin-4(3H)-one hydrochloride] | 10 |
| O=C(C[C@H]1NCCC[C@@H]1O)Cn1cnc2cccc(-c3cccc(C(F)(F)F)c3)c2c1=O [Example 26, 3-{3-[(2R,3S)-3-Hydroxypiperidin-2-yl]-2-oxopropyl}-5-[3-(trifluoromethyl)phenyl]quinazolin-4(3H)-one hydrochloride] | 13 |
| O=C(C[C@H]1NCCC[C@@H]1O)Cn1cnc2cccc(-c3ccc(F)c(F)c3)c2c1=O [Example 27, 5-(3,4-Difluorophenyl)-3-{3-[(2R,3S)-3-hydroxypiperidin-2-yl]-2-oxopropyl}quinazolin-4(3H)-one hydrochloride] | 6 |
